The values that follow come from patent US11261170B2, “Aromatic compound, pharmaceutical composition and use thereof” (Sichuan Kelun-Biotech Biopharmaceutical Co., Ltd., priority 2017, dated 2022).

Structures are written as SMILES. Marks after values point to notes of the source that are not given here.

The target of data set [1] is T1, PPARα (Homo sapiens (Human), UniProt Q07869). Nature of the data set: Activation of PPARα in genetically engineered CHO-K1 cells (PathHunter). The class given is cell-based. To be noted: PathHunter CHO-K1 PPARα cell line, agonist format, 6 hours. From the text:
(§1) Test Example 3: Experiment of Compounds on Activation of PPAR α, δ and γ in Genetically Engineered CHO-K1 Cells
(§2) Cell: PathHunter® CHO-K1 PPARα Protein Interaction Cell Line, PathHunter® CHO-K1 PPARδ Protein Interaction Cell Line and PathHunter® CHO-K1 PPARγ Protein Interaction Cell Line, provided by DiscoverX®.
(§3) Assay kit: PathHunter® Detection Kit, provided by DiscoverX®.
(§4) 1) Cell Handling: PathHunter NHR (nuclear hormone receptor, PPARα, δ, γ) cell lines were expanded from freezer stocks according to standard procedures. Cells were seeded in a total volume of 20 μL into white walled, 384-well microplates and incubated at 37° C., 5% CO2 for the appropriate time prior to testing. […]
(§5) 3) Signal detection: Assay signal was generated through a single addition of 12.5 or 15 μL (50% v/v) of PathHunter Detection reagent cocktail, followed by one-hour-incubation at room temperature. Microplates were read following signal generation with a PerkinElmer Envision™ instrument for chemiluminescent signal detection.
(§6) 4) Data analysis: Both compound activity and EC50S were analyzed using CBIS data analysis suite (ChemInnovation, CA). For agonist mode assays, percentage activity was calculated using the following formula: % Activity=100%×(mean RLU of test sample−mean RLU of vehicle control)/(mean MAX control ligand−mean RLU of vehicle control).
Target sequence in this assay (Q07869 whole entry): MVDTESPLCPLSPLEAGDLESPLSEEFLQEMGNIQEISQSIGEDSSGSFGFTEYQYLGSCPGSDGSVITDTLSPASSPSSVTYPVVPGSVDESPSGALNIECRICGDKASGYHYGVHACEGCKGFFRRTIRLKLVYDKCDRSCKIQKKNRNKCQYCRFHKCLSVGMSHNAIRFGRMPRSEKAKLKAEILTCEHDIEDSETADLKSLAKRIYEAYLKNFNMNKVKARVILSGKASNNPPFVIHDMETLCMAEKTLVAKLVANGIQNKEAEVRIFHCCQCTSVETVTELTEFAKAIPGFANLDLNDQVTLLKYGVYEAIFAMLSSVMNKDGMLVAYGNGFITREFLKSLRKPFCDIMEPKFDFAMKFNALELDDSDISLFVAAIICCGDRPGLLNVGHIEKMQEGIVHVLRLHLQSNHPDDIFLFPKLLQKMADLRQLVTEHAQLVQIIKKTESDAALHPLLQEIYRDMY

For data set [2], the target named is PPARγ (Homo sapiens (Human), UniProt P37231). Nature of the data set: Activation of PPARγ in genetically engineered CHO-K1 cells (PathHunter). It counts as cell-based. The note with it: PathHunter CHO-K1 PPARγ cell line, agonist format, 6 hours.
PPARγ, sequence (P37231 whole entry): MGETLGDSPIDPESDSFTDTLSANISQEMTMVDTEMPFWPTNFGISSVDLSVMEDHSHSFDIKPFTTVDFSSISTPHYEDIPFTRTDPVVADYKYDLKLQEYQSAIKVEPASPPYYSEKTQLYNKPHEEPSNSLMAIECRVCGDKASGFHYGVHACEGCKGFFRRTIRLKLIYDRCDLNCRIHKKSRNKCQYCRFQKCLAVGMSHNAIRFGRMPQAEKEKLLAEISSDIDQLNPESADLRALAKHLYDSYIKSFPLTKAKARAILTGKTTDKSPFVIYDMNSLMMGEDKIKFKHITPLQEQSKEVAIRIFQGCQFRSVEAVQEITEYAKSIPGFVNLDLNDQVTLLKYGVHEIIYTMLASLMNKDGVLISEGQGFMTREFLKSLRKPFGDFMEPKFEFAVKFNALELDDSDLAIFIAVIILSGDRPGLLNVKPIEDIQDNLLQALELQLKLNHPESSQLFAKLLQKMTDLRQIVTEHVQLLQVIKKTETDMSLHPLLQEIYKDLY
Source text: as §1, §2, §3, §4, §5, §6

Data set [3] addresses T2, PPARδ (Homo sapiens (Human), UniProt Q03181). The experiment in a line: Activation of PPARδ in genetically engineered CHO-K1 cells (PathHunter). The class given is cell-based. The note with it: PathHunter CHO-K1 PPARδ cell line, agonist format, 6 hours.
Source text: as §1, §2, §3, §4, §5, §6
Target sequence in this assay (Q03181 whole entry): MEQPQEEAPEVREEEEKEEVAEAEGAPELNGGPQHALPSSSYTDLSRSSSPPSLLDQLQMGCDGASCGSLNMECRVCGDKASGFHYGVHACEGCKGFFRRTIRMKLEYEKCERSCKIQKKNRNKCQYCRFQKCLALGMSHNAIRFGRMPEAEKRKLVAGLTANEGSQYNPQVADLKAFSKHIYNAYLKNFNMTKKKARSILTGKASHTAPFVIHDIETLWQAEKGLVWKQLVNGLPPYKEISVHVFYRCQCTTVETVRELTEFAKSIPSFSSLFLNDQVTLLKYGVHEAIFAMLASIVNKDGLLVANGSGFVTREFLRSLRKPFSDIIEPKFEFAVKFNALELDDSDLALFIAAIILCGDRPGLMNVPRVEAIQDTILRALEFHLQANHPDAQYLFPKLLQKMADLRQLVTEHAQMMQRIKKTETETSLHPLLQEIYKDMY

The target of data set [4] is hERG potassium ion channel (Homo sapiens (Human), UniProt Q12809). The experiment in a line: Predictor hERG fluorescence polarization. It counts as binding. As to the method:
Test Example 5: In Vitro Safety Test
The effect of the compound on hERG potassium ion channel was tested by Predictor™ hERG fluorescence polarization.

The nature of data set [5]: Cytotoxicity test on HepG2 cells (CellTiter Glo). The class given is cell-based. To be noted: human, incubated for 3 days. On the procedure:
(§7) Test Example 4: Cytotoxicity Test of Compound on HepG2 & Hek293 Cells
(§8) Cells: human hepatocyte HepG2, purchased from ATCC; Human embryonic kidney cells HEK293: purchased from ATCC;
(§9) Assay reagent: CellTiter Glo® Luminescent Cell Viability Assay, purchased from Promega.
(§10) HepG2 and HEK293 cells were incubated in DMEM/F12 medium containing 10% of fetal bovine serum respectively. A proper amount of cells were plated into a 96-well plate, the plate was placed in an incubator overnight, and the culture medium was removed, and replaced with a complete culture medium containing the compound of the application, and incubated for 3 days. On day 4, an assay reagent CellTiter Glo was added to each well, and the relative luminous unit (RLU) of each well was determined by chemiluminescence. CC50 values of the compound of the application to HepG2 and HEK293 cells were calculated by GraphPad software, and the results were shown in Table 3.

Data set [6] has as its target T1, PPARα. Nature of the data set: Activation of transient transfected PPAR α in HEK293 cells (GAL4-hPPAR α luciferase assay). The class given is cell-based. To be noted: HEK293 transfected with GAL4-hPPAR α, 24 h incubation. On the procedure: Test example 1: Experiment of the compounds on activation of transient transfected PPAR α in HEK293 cells
Plasmid: pcDNA3.1(+)-GAL4-hPPAR α, customized by Nanjing Kebai Biotechnology Co., Ltd.
(§11) Liposome: PGL4.35, customized by Nanjing Kebai Biotechnology Co., Ltd.
(§12) Cell: human embryonic kidney cells HEK293, purchased from ATCC.
(§13) Transfection reagent: Lipofectamine Reagent 3000 purchased from Invitrogen.
(§14) Assay kit: Bright Glo™ Luciferase Assay System purchased from Promega.
(§15) HEK293 cells were incubated in DMEM medium containing 10% of fetal bovine serum at 37° C. in the presence of 5% of CO2. 3×10^5/ml cells were plated in each well of the 6-well plate. When the cell convergence degree reached 50%-80%, 5 μg of liposome PGL4.35 and 5 μg of expression plasmid pcDNA3.1(+)-GAL4-hPPAR α were added to transfect the cells for 24 h and then the cells were collected. The transfected cells were plated in the 96-well plate and the compounds of the application in different concentrations were added, incubated for 24 h, and Bright Glo™ Luciferase Assay System reagent was added for luciferase assay.
Target sequence in this assay (Q07869 whole entry, looked up): as the sequence (Q07869 whole entry) above

The subject of data set [7] is MCD model of non-alcoholic steatohepatitis. The experiment in a line: In vivo efficacy study in the MCD model of non-alcoholic steatohepatitis. The note with it: MCD diet mice. Further details: species or system C57 Mice. As to the method:
Test Example 6: In Vivo Efficacy Study of Compound in the MCD Model of Non-Alcoholic Steatohepatitis In this example, comparative test between compound GFT505 from WO2018133705A1 and compounds of the invention was conducted, so as to show the advantages of compounds of the invention. C57 Mice at 8-10 weeks of age (purchased from Vital River Laboratories) were body-weight matched and randomly divided into groups of normal, model, control and test. Mice in normal group were fed with standard chow for 9 weeks. Mice in model group, control group and test group were fed with MCD diet (Methionine-Choline Deficient Diet, Research Diets) for 9 weeks to induce NASH Model. During weeks 5-9 of the 9-week course of MCD diet, the control group and the test group were treated with GFT505 and TM4 of the invention, respectively, and the normal group and model group were treated with 0.5% MC. The dosage regimen was specified in table 5. [table] Animals were dissected after administration on day 35, livers were collected for H&E staining (hematoxylin-eosin staining) and sirius red staining. And then NAFLD activity score, including liver steatosis score, inflammation score and ballooning score, and liver fibrosis score were conducted.

A short description of data set [8]: Cytotoxicity test on HEK293 cells (CellTiter Glo). The class given is cell-based. To be noted: human, incubated for 3 days. On the procedure: as §7, §8, §9, §10
Data set [9] addresses T2, PPARδ. Nature of the data set: Activation of transient transfected PPAR δ in HEK293 cells (GAL4-hPPAR δ luciferase assay). It counts as cell-based. To be noted: HEK293 transfected with GAL4-hPPAR δ, 24 h incubation. As to the method:
Test Example 2: Experiment of the Compounds on Activation of Transient Transfected PPAR δ in HEK293 Cells
Plasmid: pcDNA3.1(+)-GAL4-hPPAR δ, customized by Nanjing Kebai Biotechnology Co., Ltd.
as §11, §12, §13, §14
as §15, with “δ” for “α”, “Then, the” for “The”, “reagent” for “reagent was added”, “assay was added.” for “assay.”
Target sequence in this assay (Q03181 whole entry, looked up): as the sequence (Q03181 whole entry) above

The mark [10] stands for this setting: 1 mg/kg intragastric once every day for 35 days.
The mark [11] stands for this setting: 1 mg/kg, 35 days, result in words.

hERG potassium ion channel, sequence (Q12809 whole entry): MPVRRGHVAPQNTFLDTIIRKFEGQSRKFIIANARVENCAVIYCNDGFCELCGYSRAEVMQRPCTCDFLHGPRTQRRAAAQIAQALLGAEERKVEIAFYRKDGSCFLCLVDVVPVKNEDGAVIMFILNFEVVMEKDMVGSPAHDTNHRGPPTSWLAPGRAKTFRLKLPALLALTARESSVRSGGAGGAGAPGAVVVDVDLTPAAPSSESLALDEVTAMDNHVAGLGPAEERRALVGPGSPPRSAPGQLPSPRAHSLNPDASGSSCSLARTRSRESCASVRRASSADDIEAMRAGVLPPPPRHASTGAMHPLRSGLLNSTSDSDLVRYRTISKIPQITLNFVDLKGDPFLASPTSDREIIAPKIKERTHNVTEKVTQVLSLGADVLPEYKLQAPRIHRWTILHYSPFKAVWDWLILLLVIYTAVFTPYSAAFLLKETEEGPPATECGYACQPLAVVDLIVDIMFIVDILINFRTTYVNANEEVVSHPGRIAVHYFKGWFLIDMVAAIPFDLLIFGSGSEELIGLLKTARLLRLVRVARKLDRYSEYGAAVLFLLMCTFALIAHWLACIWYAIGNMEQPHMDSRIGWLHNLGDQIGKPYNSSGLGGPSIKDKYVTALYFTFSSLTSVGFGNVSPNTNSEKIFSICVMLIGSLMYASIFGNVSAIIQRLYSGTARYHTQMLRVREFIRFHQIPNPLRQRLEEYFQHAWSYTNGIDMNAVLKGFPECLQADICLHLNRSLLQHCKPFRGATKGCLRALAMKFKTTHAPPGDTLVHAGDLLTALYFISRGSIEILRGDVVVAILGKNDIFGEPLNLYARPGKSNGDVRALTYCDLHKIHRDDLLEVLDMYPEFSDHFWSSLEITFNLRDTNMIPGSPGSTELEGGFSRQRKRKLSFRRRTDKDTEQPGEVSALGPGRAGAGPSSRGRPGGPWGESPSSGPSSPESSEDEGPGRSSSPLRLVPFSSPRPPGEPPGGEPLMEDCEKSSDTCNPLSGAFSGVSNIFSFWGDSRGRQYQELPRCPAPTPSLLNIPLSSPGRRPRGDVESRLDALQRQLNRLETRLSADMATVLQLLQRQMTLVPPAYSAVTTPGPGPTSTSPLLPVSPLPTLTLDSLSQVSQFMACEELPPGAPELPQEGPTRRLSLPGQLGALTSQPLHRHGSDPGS

Regarding `COc1nc2ccccc2cc1C(=O)CCc1cc(C)c(OC(C)(C)C(=O)O)c(C)c1` [TM42, 2-(4-(3-(2-methoxyquinolin-3-yl)-3-oxopropyl)-2,6-dimethylphenoxy)-2-methylpropanoic acid], the EC50 in data set [1] came out at 63 nM; in [2], 1950 nM; in [3] it was 496 nM.
Take `COc1nc2ccccc2cc1C(=O)/C=C/c1cc(C)c(OC(C)(C)C(=O)O)c(C)c1` [Example 5, (E)-2-(4-(3-(2-methoxyquinolin-3-yl)-3-oxo-1-propen-1-yl)-2,6-dimethylphenoxy)-2-met hylpropionic acid]: in [4], the IC50 was more than 10000 nM. Also, the EC50 in [1] turned out to be 23 nM; in data set [2] it was 174 nM; in data set [6], 28.3 nM; in data set [3], 797 nM; in data set [9], 556 nM. Moreover, the values for the CC50 at 3 days in data set [5] and in data set [8] were 13000 nM and 7130 nM, respectively. Further, the “Liver fibrosis score (Mean ± SD)” value in [7] (setting [10]) was 0.88 ± 0.35^b. In addition, the “NAFLD activity score (Mean ± SD)” value in data set [7] (setting [10]) is 3.00 ± 0.93^b. In addition, in data set [7] (setting [11]), the “Reduction of NAFLD activity score compared with model group” value is “significant reduction”. Moreover, the “Reduction of liver fibrosis score compared with model group” value in data set [7] (setting [11]) is reported as “significant reduction”.
